# Values quoted from earlier work in patent US9409783B2, “Method for manufacturing mesoporous materials, materials so produced and use of mesoporous materials” (Nanologica AB, priority 2008, dated 2016).
# Conditions: L-glutamate group of folic acid; deprotonated and negatively charged above this pH
compound,measurement,value
Nc1nc2ncc(CNc3ccc(C(=O)N[C@@H](CCC(=O)O)C(=O)O)cc3)nc2c(=O)[nH]1 [folic acid],pKa value,8.3
